Source: patent US20230295212A1 (ROME Therapeutics, Inc., priority 2022, published 2023)

How the values were obtained:
[1] = molecular target: T1, LINE1 reverse transcriptase (Homo sapiens, UniProt O00370); assay: Stable artificial-intron Cis LINE1 reporter assay (HeLa Tet-On 3G, Firefly luciferase); type: cell-based; conditions: HeLa L1 artificial-intron reporter cells, doxycycline 500 ng/mL, 72 h, class symbols
T1 construct: expressed in transfected cells; host or cells: HeLa Tet-On 3G (Takara, cat no 631183)
Method in brief: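 HeLa Tet-On 3G clone stably carrying a bi-directional doxycycline-inducible artificial-intron LINE1 reporter, plated at 8,000 cells/well onto serially diluted compound. Expression induced with 500 ng/mL doxycycline (final); Firefly luciferase luminescence (Dual-Glo) read 72 h after plating as LINE1 activity.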

human PBMC = assay: Decitabine-stimulated human PBMC assay (IFN-β, cell viability); type: cell-based; conditions: 5 days; for IFN-β level: anti-CD3/anti-CD28, decitabine 10 μM
Method: EasySep buffer (32 mL, […] Technologies, cat. #20144) was used to dilute 8 mL of LRSC buffy coat (from fresh Leukopak) with gentle mixing. The diluted buffy coat (20 mL) was transferred into each of two SepMate 50 tubes, and the tubes were filled with 15 mL of Lyphoprep ([…], cat. #07851) density gradient. The SepMate tubes were then centrifuged at 1200G for 10 minutes at room temperature with the brake on. The top layer of supernatant was collected in SepMate tubes by quickly pouring it into a new 50 mL conical tube. The PBMCs were washed with EasySep buffer ×2 by centrifuging at 300G for 5 minutes. The cells were resuspended in 30 mL of EasySep and centrifuged at 100G for 5 minutes with the brake off, and the platelets were removed. The cells were then resuspended in 6 mL of 1×RBC lysis buffer (Invitrogen) and incubated at 37° C. for 5 minutes. 25 mL of EasySep buffer was then mixed into the tube and centrifuged at 300G for 5 minutes. The cells were resuspended in 10 mL of EasySep buffer and the cells were then counted with Cellometer (AO/PI). The PBMCs were resuspended in RPMI1640 (ThermoFisher)^+10% FBS (HyClone)^+μ/s at 3×10^6/mL. The PBMCs (100 μL, 300 k PBMCs) were then seeded in a 96-well flat bottom microplate (Corning) that had been precoated with 100 μL of anti-CD3 antibody (10 μg/mL in PBS, Biolegend) or PBS at 4° C., one day before the assay was commenced.
To each well the following solutions were added 1) 100 μL of cells (final cell number per well is 3×10^5 cell/well); 2) 25 μL of anti-CD28 antibody at 6×(5 μg/mL final concentration, Biolegend); 3) 25 μL of decitabine at 6×(10 μM final concentration); and 4) Compound in DMSO was dispensed directly into each well with a d300e digital dispenser (Tecan). The final concentration of DMSO for each well was normalized to 0.3%. The plate was incubated at 37° C. without any agitation for 5 days. Samples were collected 120 hours after incubation to determine IFN-0 and IL-2 levels using a U-PLEX Human IFN-β Assay Sector (5PL) (MSD, cat. #K151VIK-2).
After 5 days, the plate was spun down at 100×G for 5 minutes. Supernatants (100 μL) were collected for interferon β(IFN-β) analysis using the MSD assay noted above, and any residual supernatant was stored at −80° C.

[2] = system: THP1-Dual KO-TREX1 xenograft tumors; assay: Altering IFN production in THP1 TREX1 KO xenografts (compounds 2, 25, 40); type: in vivo, mouse; conditions: CB-17 SCID mice, decitabine 5 mg/kg IP, test compound 10, 30 or 100 mg/kg PO once daily 4 days, tumors 24 h post-last dose
Method: Exemplary compounds 2, 25 and 40 were tested for their ability to alter IFN levels in THP1-Dual™ KO-TREX1 xenografts in mice. Assay procedures are described below.
CB-17 SCID female mice were inoculated subcutaneously with 10 million THP1-Dual™ KO-TREX1 cells in 200 μl PBS with Matrigel (1:1) and grouped when tumor volume reached 350-400 mm^3. Mice bearing THP1-Dual™ KO-TREX1 xenograft tumors were then separated into 5 groups. Three groups were administered: (1) decitabine (DAC) at 5 mg/kg IP, once daily, for 4 days, and (2) test compound at 10, 30, or 100 mg/kg, PO, once daily, for 4 days. One group was administered decitabine (DAC) at 5 mg/kg IP, once daily, for 4 days, and the test compound vehicle control. The final group was administered the vehicle control from both the test compound and the vehicle control from decitabine. Decitabine is formulated in sterile PBS, pH 7.4, and Compound 2, 25, and 40 were formulated in 20% PEG400 in PBS.
Tumors were harvested 24 h post-last dose administered on day 4, ground in PBS at 50 Hz for 5 min, and kept on ice for 30 min while being vortexed every 5 min. […] Equal amounts of proteins were added to 96-well black plates, and luciferase signal was measured using the QUANTI-Luc™ detection medium according to manufacturer's instructions. Luminescence was measured using the EnVision® 2105 Multimode Plate Reader. […]

[3] = molecular target: T2, LINE1 reverse transcriptase (recombinant MBP-tagged LINE1 protein (238-1061)) (Homo sapiens, UniProt O00370); assay: Homogeneous time-resolved fluorescence (HTRF) LINE1 RT assay; type: biochemical; conditions: triphosphate analogs, LINE1 enzyme 64 ng/well, 25° C. 60 minutes
T2 construct: recombinant MBP-tagged LINE1 protein (238-1061); made in house
Method: Exemplary triphosphate analogs were tested for the ability to inhibit LINE1 reverse transcriptase using a homogeneous time-resolved fluorescence (HTRF) assay. Assay procedures and results are described below.
The LINE1 reverse transcriptase homogeneous time-resolved fluorescence (HTRF) assay was performed with recombinant MBP-tagged LINE1 protein (238-1061) (generated and purified according to procedures in Dai L. et al. BMC Biochemistry 2011; 12:18) in a 384-well format. Test compound was serially diluted in DMSO and further diluted in the assay buffer (50 mM Tris-HCl, 50 mM KCl, 10 mM MgCl2, 10 mM DTT, pH 8.1) to achieve a final DMSO concentration of 1%. The serially diluted compound was mixed with 64 ng/well of LINE1 enzyme, 5 nM of pre-annealed template/biotin-primer pair (synthesized at Generay Biotechnology), 10 nM of Fluorescein-12-dCTP fluorescent probe (PerkinElmer), and 1 μM dGTP/dATP/dTTP (ThermoFisher Scientific) in the assay buffer. The template/biotin-primer sequences were as follows:
After incubating at 25° C. for 60 minutes, the detection reagent (20 mM EDTA with streptavidin-terbium cryptate, Cisbio Bioassay) in the PPI buffer (Cisbio Bioassay) was added, and the mixture was incubated at 25° C. for 30 minutes. At the end of the incubation, fluorescence was read at ex/em=337/485 nm and ex/em=337/520 nm on an Envision 2104 plate reader (PerkinElmer). The fluorescence ratio at 520/485 nm was used for the calculation. […] The IC50 was calculated by fitting the compound dose inhibition curve with a 4-parameter non-linear regression equation.

[4] = molecular target: T3, HERV-K reverse transcriptase (Homo sapiens, UniProt V9H0F6); assay: Homogeneous time-resolved fluorescence (HTRF) HERV-K RT assay; type: biochemical; conditions: triphosphate analogs, HERV-K enzyme 16 ng/well, 25° C. 30 minutes
T3 construct: fused on or other part: C-terminal 8xHis tag
T3 sequence (V9H0F6 entry or part of it): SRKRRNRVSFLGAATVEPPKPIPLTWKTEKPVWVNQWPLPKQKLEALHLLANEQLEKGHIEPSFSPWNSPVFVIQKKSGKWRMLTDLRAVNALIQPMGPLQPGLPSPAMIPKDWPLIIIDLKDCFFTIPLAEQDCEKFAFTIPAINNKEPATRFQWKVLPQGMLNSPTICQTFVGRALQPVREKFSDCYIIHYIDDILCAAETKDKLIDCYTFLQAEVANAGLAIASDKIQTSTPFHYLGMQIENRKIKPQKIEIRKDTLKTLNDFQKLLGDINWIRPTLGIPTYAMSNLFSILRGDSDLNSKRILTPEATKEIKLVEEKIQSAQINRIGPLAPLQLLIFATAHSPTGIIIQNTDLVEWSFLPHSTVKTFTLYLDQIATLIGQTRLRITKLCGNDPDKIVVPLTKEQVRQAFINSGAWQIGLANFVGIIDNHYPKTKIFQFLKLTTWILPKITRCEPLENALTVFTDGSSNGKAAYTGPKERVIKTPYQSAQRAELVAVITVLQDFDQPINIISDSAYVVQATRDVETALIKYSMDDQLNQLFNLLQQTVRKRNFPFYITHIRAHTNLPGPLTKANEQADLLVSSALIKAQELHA
Method: Exemplary triphosphate analogs were tested for ability to inhibit HERV-K reverse transcriptase using a homogeneous time-resolved fluorescence (HTRF) assay. Assay procedures and results are described below.
The HERV-K reverse transcriptase homogeneous time-resolved fluorescence (HTRF) assay was performed in a 384-well format with HERV-K reverse transcriptase (2-596)-8His protein. Baculoviruses were created using Bac-to-Bac technology (Invitrogen). pFastflac donor plasmids containing HERV-K reverse transcriptase sequence (NCBI GenBank number AAC63291.1, J. Virology (1999) Vol. 73, No. 3, pp. 2365-2375) were transformed into DH10 Bac cells following the manufacturer's instructions. Recombinant bacmids were then isolated clonally and transfected into SF9 cells with lipofectin. HERV-K reverse transcriptase was expressed in the SF9 insect cells and then purified using immobilized metal affinity chromatography (IMAC) followed by size-exclusion chromatography (SEC).
Test compound was serially diluted in DMSO and further diluted in the assay buffer (50 mM Tris-HCl, 50 mM KCl, 10 mM MgCl2, 10 mM DTT, pH 8.1) to achieve a final DMSO concentration of 1%. The serially diluted compound was mixed with 16 ng/well of HERV-K enzyme, 5 nM of pre-annealed template/biotin-primer pair (synthesized at Geneway Biotechnology), 10 nM of Fluorescein-12-dCTP fluorescent probe (PerkinElmer), and 1 mM dGTP, dATP, and DTTP (ThermoFisher). The template/biotin-primer sequences were:
After incubating at 25° C. for 30 minutes, the detection reagent 20 mM EDTA with streptavidin-terbium cryptate (Cisbio Bioassay) in the PPI buffer (Cisbio Bioassay) was added, and the mixture was incubated at 25° C. for 60 minutes. At the end of the incubation, fluorescence was read at ex/em=337/485 nm and ex/em=337/520 nm on an Envision 2104 plate reader (PerkinElmer). The fluorescence ratio at 520/485 nm was used for the calculation. […] IC50 values were calculated by fitting the compound dose inhibition curve with a 4-parameter non-linear regression equation.

[5] = system: interferon-stimulated gene (ISG) response; assay: In vivo decitabine challenge model in C57BL/6 mice (ISG response); design: species or system mouse; conditions: decitabine i.p. 5 mg/kg, compound p.o. 0.6, 2.0, 6.0 mg/kg daily Day 0 to Day 4, IFIT2 v. GAPDH
Method: Exemplary compounds were tested for ability to alter the interferon-stimulated gene (ISG) response in C57BL/6 mice treated with decitabine. Assay procedures and results are described below. Twenty 9-11 week old C57BL/6 mice were acclimated to the lab for at least 5 days. Compound 23 was prepared in a 0.5% methylcellulose solution for p.o. administration. Decitabine (Sigma-Aldrich) was dissolved in sterile PBS (pH 7.4) and dosed within 30 minutes of preparation of the solution. Doses of both the compound and decitabine were administered once a day, every day from Day 0 to Day 4. On Day 0, mice were split into five groups of five mice and given their first dose of decitabine (i.p., 5 mg/kg) and compound 23. Dosing groups were: Decitabine and compound 23 were administered daily from Day 0 to Day 4. All mice were euthanized 1 hour after the last dose administration on Day 4. Spleens, liver, and terminal colon were collected, along with plasma from each animal. The fold changes in interferon-stimulated gene (ISG) expression was calculated by first normalizing to GAPDH gene using the Delta CT method. The CT (gene of interest)—CT (reference gene) was calculated to generate a delta CT for all samples. The fold change was then calculated by taking the Log2(Delta CT(control)—Delta CT (experimental). The control in this example was the PBS control animal group. The Taqman duplex assay was used to determine levels of GAPDH v. IFIT2. Twenty 9-11 week old C57BL/6 mice were acclimated to the lab for at least 5 days. Compound 2 was prepared in 20% PEG400 in PBS (final pH 4.5) for p.o. administration. Decitabine (Sigma) was dissolved in sterile PBS (pH 7.4) and dosed within 30 minutes of preparation of the solution. Doses of both Compound 2 and decitabine were administered once a day. On Day 0, mice were split into five groups of five mice and given their first dose of decitabine and Compound 2. […] The fold changes in interferon-stimulated gene (ISG, specifically IRF7 and MX1) expression was calculated by first normalizing to GAPDH gene using the Delta CT method. […]

Structure (SMILES) | IC50 [1] | IFN-β level (human PBMC) | cell viability (human PBMC; decitabine 10 μM) | inhibition of DAC-induced IFN signal in THP1 tumors [2] | IC50 [3] | IC50 [4] | change in interferon-stimulated gene (ISG) response (FIG. 2A) [5]
Nc1ccn([C@@H]2O[C@@](CO)(CCl)[C@@H](O)[C@@H]2F)c(=O)n1 [Compound 40, 4-amino-1-((2R,3S,4R,5R)-5-(chloromethyl)-3-fluoro-4-hydroxy-5-(hydroxymethyl)tetrahydrofuran-2-yl)pyrimidin-2(1H)-one] | ≤ 50 nM | inhibition of IFN-0 | some cell viability losses at higher concentrations | potent inhibition of DAC-induced IFN signal | – | – | –
Nc1nc(=O)n([C@@H]2O[C@](CBr)(COP(=O)(O)OP(=O)(O)OP(=O)(O)O)[C@@H](O)[C@@H]2F)cc1F [Compound 86-TP, ((2R,3R,4S,5R)-5-(4-amino-5-fluoro-2-oxopyrimidin-1(2H)-yl)-2-(bromomethyl)-4-fluoro-3-hydroxytetrahydrofuran-2-yl) methyl tetrahydrogen triphosphate; tetrakis(triethylamine)] | – | – | – | – | 1610 nM | > 10000 nM | –
C#C[C@]1(CO)O[C@@H](n2cnc3c(N)nc(Cl)nc32)C[C@@H]1O [Compound 25, (2R,3S,5R)-5-(6-amino-2-chloro-9H-purin-9-yl)-2-ethynyl-2-(hydroxymethyl) tetrahydrofuran-3-ol] | ≤ 50 nM | activated production of IFN-β | – | – | – | – | –
C#C[C@]1(CO)O[C@@H](n2cnc3c(N)nc(F)nc32)C[C@@H]1O [Compound 23, (2R,3S,5R)-5-(6-amino-2-fluoro-9H-purin-9-yl)-2-ethynyl-2-(hydroxymethyl) tetrahydrofuran-3-ol] | ≤ 50 nM | activated production of IFN-β | – | – | – | – | change in ISG response
